For this assay, the target named is human Nav1.7 (Homo sapiens, UniProt Q15858). Description: FLIPR or FLIPR TETRA sodium dye assay with KCl and test article pre-incubation (CoroNa Green, veratridine + scorpion venom). Format: cell-based.
Setting [1] is: recombinant human Nav1.7 in HEK293 cells.

Where two headings read alike, the source gives them in different places. A value given as a limit tells only on which side of the number the result lay.

Sequence of human Nav1.7 (Q15858 1-1977 isoform Q15858-3): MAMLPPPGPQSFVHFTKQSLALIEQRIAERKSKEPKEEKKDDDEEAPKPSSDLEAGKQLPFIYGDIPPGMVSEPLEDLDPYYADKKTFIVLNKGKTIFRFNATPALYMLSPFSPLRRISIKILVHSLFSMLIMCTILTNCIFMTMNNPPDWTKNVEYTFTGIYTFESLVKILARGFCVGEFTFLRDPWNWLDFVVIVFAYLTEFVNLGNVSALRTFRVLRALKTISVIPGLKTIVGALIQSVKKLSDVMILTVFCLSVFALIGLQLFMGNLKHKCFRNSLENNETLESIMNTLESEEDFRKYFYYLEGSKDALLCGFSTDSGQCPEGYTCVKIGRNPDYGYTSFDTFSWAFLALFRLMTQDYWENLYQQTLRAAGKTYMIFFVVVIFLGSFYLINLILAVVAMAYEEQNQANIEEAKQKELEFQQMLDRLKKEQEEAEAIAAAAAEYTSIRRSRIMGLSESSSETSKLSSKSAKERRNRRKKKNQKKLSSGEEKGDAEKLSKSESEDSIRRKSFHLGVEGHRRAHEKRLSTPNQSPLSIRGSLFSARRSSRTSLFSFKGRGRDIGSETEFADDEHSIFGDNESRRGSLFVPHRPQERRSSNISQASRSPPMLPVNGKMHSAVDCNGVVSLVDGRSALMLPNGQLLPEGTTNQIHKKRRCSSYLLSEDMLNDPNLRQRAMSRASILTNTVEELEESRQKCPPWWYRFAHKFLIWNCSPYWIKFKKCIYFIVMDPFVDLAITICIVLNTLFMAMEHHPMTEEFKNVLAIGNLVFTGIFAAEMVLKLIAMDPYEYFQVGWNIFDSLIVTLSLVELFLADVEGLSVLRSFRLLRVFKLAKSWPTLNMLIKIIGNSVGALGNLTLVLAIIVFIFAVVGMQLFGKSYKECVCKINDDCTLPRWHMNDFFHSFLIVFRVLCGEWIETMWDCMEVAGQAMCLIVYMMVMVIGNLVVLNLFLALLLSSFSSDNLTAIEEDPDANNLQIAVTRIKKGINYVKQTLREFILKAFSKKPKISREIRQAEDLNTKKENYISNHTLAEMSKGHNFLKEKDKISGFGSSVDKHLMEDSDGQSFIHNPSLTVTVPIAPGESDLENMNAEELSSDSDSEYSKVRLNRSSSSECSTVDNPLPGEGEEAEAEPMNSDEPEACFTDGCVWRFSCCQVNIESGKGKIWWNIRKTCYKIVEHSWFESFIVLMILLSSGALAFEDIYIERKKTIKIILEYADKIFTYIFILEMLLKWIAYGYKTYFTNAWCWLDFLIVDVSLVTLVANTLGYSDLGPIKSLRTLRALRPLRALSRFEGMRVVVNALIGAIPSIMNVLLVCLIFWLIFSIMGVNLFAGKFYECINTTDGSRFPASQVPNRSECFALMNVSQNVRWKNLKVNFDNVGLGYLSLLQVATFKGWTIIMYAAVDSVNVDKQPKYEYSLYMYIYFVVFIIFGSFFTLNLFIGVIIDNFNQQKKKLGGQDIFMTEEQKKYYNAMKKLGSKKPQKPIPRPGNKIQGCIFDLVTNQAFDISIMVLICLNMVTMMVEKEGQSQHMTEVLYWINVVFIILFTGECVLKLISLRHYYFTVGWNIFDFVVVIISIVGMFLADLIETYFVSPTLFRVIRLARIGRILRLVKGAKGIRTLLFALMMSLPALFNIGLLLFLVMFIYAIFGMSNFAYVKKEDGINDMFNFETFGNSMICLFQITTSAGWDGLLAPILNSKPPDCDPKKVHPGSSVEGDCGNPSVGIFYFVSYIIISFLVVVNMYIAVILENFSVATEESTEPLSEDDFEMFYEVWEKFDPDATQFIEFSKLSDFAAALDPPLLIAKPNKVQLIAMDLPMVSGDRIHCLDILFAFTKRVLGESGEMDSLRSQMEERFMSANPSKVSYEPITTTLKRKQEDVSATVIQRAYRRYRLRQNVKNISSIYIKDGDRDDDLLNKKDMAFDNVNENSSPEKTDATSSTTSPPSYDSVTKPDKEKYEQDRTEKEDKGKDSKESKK

For `CC(=O)N1CCN(C2CCCCC2)c2ccc(-c3cccc([C@H](O)CO)n3)cc2C1` [Compound 94, (S)-1-(1-cyclohexyl-7-(6-(1,2-dihydroxyethyl)pyridin-2-yl)-1,2,3,5-tetrahydro-4H-benzo[e][1,4]diazepin-4-yl)ethan-1-one], the IC50 (in general, the concentration at which inhibition is half-maximal) under setting [1] is 8.8 ± 1.92 µM.

Consider `C[C@H](Nc1cc(C(N)=O)nc(-c2ccc3c(c2)CN(C)CCN3c2ccc(C(F)(F)F)cc2)n1)C(N)=O` [Compound 90, (S)-6-((1-amino-1-oxopropan-2-yl)amino)-2-(4-methyl-1-(4-(trifluoromethyl)phenyl)-2,3,4,5-tetrahydro-1H-benzo[e][1,4]diazepin-7-yl)pyrimidine-4-carboxamide], for which, under setting [1], the IC50 is over 20 µM.

For `NC(=O)c1cccc(-c2ccc3c(c2)CN(CC(O)CO)CCN3c2ccc(C(F)(F)F)cc2)n1` (stereo not drawn) [Compound 109, 6-(4-(2,3-dihydroxypropyl)-1-(4-(trifluoromethyl)phenyl)-2,3,4,5-tetrahydro-1H-benzo[e][1,4]diazepin-7-yl)picolinamide], the 50% inhibitory concentration (IC50) under setting [1] turned out to be 5.7 ± 0.663 µM. On to `NC(=O)c1cc(-c2ccc3c(c2)CN(CC2CC2)CCN3c2ccc(C(F)(F)F)cc2)cc([C@H](O)CO)n1` [Compound 123, (S)-4-(4-(cyclopropylmethyl)-1-(4-(trifluoromethyl)phenyl)-2,3,4,5-tetrahydro-1H-benzo[e][1,4]diazepin-7-yl)-6-(1,2-dihydroxyethyl)-picolinamide], for which the IC50 under setting [1] turned out to be 9.61 ± 0.339 µM. On to `NC(=O)c1cccc(-c2ccc3c(c2)CCCN3c2ccc(C(F)(F)F)cc2)n1` [Compound 66, 6-(1-(4-(trifluoromethyl)-phenyl)-1,2,3,4-tetrahydroquinolin-6-yl)picolinamide], for which the IC50 under setting [1] was 0.913 ± 0.024 µM. Same read-out and setting: to `OC[C@@H](O)c1cccc(-c2ccc3c(c2)CN(Cc2ncc[nH]2)CCN3c2ccc(C(F)(F)F)cc2)n1` [Compound 107, (S)-1-(6-(4-((1H-imidazol-2-yl)methyl)-1-(4-(trifluoromethyl)phenyl)-2,3,4,5-tetrahydro-1H-benzo[e][1,4]diazepin-7-yl)pyridin-2-yl)ethane-1,2-diol] belongs 0.669 ± 0.053 µM.

Take `CN(C)CC(=O)N1CCN(c2ccc(C(F)(F)F)cc2)c2ccc(-c3cccc([C@H](O)CO)n3)cc2C1` [Compound 100, (S)-1-(7-(6-(1,2-dihydroxyethyl)pyridin-2-yl)-1-(4-(trifluoromethyl)phenyl)-1,2,3,5-tetrahydro-4H-benzo[e][1,4]diazepin-4-yl)-2-(dimethylamino)ethan-1-one]: the IC50 under setting [1] turned out to be 7.07 ± 1.45 µM. As to `NC(=O)c1cccc(-c2ccc3c(c2)OCC=C3c2ccc(C(F)(F)F)cc2)n1` [Compound 69, 6-(4-(4-(trifluoromethyl)-phenyl)-2H-chromen-7-yl)picolinamide], the IC50 under setting [1] stood at 0.524 ± 0.077 µM.

In the case of `C[C@H](Nc1cc(C(N)=O)nc(-c2ccc3c(c2)CNCCN3c2ccc(C(F)(F)F)cc2)n1)C(N)=O` [Compound 88, (S)-6-((1-amino-1-oxopropan-2-yl)amino)-2-(1-(4-(trifluoromethyl)phenyl)-2,3,4,5-tetrahydro-1H-benzo[e][1,4]diazepin-7-yl)pyrimidine-4-carboxamide], the 50% inhibitory concentration (IC50) under setting [1] is over 20 µM.

For `NC(=O)c1cccc(-c2ccc3c(c2)CCN3c2ccc(C(F)(F)F)cc2)n1` [Compound 68, 6-(1-(4-(trifluoromethyl)-phenyl)indolin-5-yl)-picolinamide], the half-inhibitory concentration (IC50) under setting [1] is over 20 µM. As to `C[C@H](Nc1cc(C(N)=O)nc(-c2ccc3c(c2)OCCC3Cc2ccc(F)cc2)n1)C(N)=O` (stereo partly drawn) [Compound 112, 6-(((S)-1-amino-1-oxopropan-2-yl)amino)-2-(4-(4-fluorobenzyl)chroman-7-yl)pyrimidine-4-carboxamide], the half-inhibitory concentration (IC50) under setting [1] amounted to 5.32 ± 0.425 µM.

Take `C[C@H](Nc1cc(C(N)=O)nc(-c2ccc3c(c2)CCCN3c2ccc(C(F)(F)F)cc2)n1)C(N)=O` [Compound 80, (S)-6-((1-amino-1-oxopropan-2-yl)amino)-2-(1-(4-(trifluoro-methyl)phenyl)-1,2,3,4-tetrahydroquinolin-6-yl)pyrimidine-4-carboxamide]: under setting [1], the IC50 was found to be 0.653 ± 0.118 µM. For the molecule `NC(=O)c1cc(CN[C@H]2CCNC2=O)nc(-c2ccc3c(c2)OCCCN3c2ccc(C(F)(F)F)cc2)n1` [Compound 72, (S)-6-(((2-oxopyrrolidin-3-yl)amino)methyl)-2-(5-(4-(trifluoromethyl)phenyl)-2,3,4,5-tetrahydrobenzo[b][1,4]oxazepin-8-yl)pyrimidine-4-carboxamide], under setting [1], the IC50 came to 0.11 ± 0.022 µM. For the molecule `NC(=O)c1cc([C@H](O)CO)cc(-c2ccc3c(c2)CN(CC2CC2)CCN3c2ccc(C(F)(F)F)cc2)n1` [Compound 122, (S)-6-(4-(cyclopropylmethyl)-1-(4-(trifluoromethyl)phenyl)-2,3,4,5-tetrahydro-1H-benzo[e][1,4]diazepin-7-yl)-4-(1,2-dihydroxyethyl)-picolinamide], the 50% inhibitory concentration (IC50) under setting [1] stood at 7.21 ± 0.341 µM. With `OC[C@@H](O)c1cccc(-c2ccc3c(c2)CCCCN3C2CCCCC2)n1` [Compound 73, (S)-1-(6-(1-cyclohexyl-2,3,4,5-tetrahydro-1H-benzo[b]azepin-7-yl)pyridin-2-yl)ethane-1,2-diol], under setting [1], the 50% inhibitory concentration (IC50) was found to be 0.331 ± 0.031 µM. As for `NC(=O)c1cccc(-c2ccc3c(c2)CNCCN3c2ccc(C(F)(F)F)cc2)n1` [Compound 84, 6-(1-(4-(trifluoromethyl)-phenyl)-2,3,4,5-tetrahydro-1H-benzo[e][1,4]diazepin-7-yl)picolinamide], the half-inhibitory concentration (IC50) under setting [1] stood at 1.92 ± 0.296 µM.

Turning to `NC(=O)[C@H](O)[C@@H](O)c1cccc(-c2ccc3c(c2)OCCCN3c2ccc(C(F)(F)F)cc2)n1` [Compound 83, (2R,3S)-2,3-dihydroxy-3-(6-(5-(4-(trifluoromethyl)phenyl)-2,3,4,5-tetrahydrobenzo[b][1,4]-oxazepin-8-yl)pyridin-2-yl)propanamide], the 50% inhibitory concentration (IC50) under setting [1] worked out at 0.213 ± 0.013 µM.

For the molecule `NC(=O)c1cccc(-c2ccc3c(c2)CCCN3c2cccc(C(F)(F)F)c2)n1` [Compound 67, 6-(1-(3-(trifluoromethyl)-phenyl)-1,2,3,4-tetrahydroquinolin-6-yl)picolinamide], the IC50 under setting [1] is over 20 µM. On the same count and under the same terms, to `C[C@H](Nc1cc(C(N)=O)nc(-c2ccc3c(c2)CCCCN3C2CCCCC2)n1)C(N)=O` [Compound 74, (S)-6-((1-amino-1-oxopropan-2-yl)amino)-2-(1-cyclohexyl-2,3,4,5-tetrahydro-1H-benzo[b]azepin-7-yl)pyrimidine-4-carboxamide] belongs 4.88 ± 0.47 µM; to `CNC(=O)CN1CCN(c2ccc(C(F)(F)F)cc2)c2ccc(-c3cccc([C@H](O)CO)n3)cc2C1` [Compound 105, (S)-2-(7-(6-(1,2-dihydroxyethyl)pyridin-2-yl)-1-(4-(trifluoromethyl)phenyl)-1,2,3,5-tetrahydro-4H-benzo[e][1,4]diazepin-4-yl)-N-methylacetamide], 0.644 ± 0.025 µM; to `CCN(CC)C(=O)N1CCN(c2ccc(C(F)(F)F)cc2)c2ccc(-c3cccc(C(N)=O)n3)cc2C1` [Compound 92, 7-(6-carbamoylpyridin-2-yl)-N,N-diethyl-1-(4-(trifluoromethyl)phenyl)-1,2,3,5-tetrahydro-4H-benzo[e][1,4]diazepino-4-carboxamide], 0.813 ± 0.057 µM.

With `CS(=O)(=O)N1CCN(c2ccc(C(F)(F)F)cc2)c2ccc(-c3cccc([C@H](O)CO)n3)cc2C1` [Compound 95, (S)-1-(6-(4-(methylsulfonyl)-1-(4-(trifluoromethyl)phenyl)-2,3,4,5-tetrahydro-1H-benzo[e][1,4]diazepin-7-yl)pyridin-2-yl)ethane-1,2-diol], the IC50 came to 0.469 ± 0.017 µM.

Regarding `NC(=O)c1cccc(-c2ccc3c(c2)COCCN3c2ccc(C(F)(F)F)cc2)n1` [Compound 61, 6-(1-(4-(trifluoromethyl)phenyl)-1,2,3,5-tetrahydrobenzo[e][1,4]oxazepin-7-yl)picolinamide], the IC50 under setting [1] came out at 0.404 ± 0.036 µM. On the same count and under the same terms, to `N#CCN1CCN(c2ccc(C(F)(F)F)cc2)c2ccc(-c3cccc(C(N)=O)n3)cc2C1` [Compound 102, 6-(4-(cyanomethyl)-1-(4-(trifluoromethyl)phenyl)-2,3,4,5-tetrahydro-1H-benzo[e][1,4]diazepin-7-yl)picolinamide] belongs 0.857 ± 0.075 µM; to `O=C1Cc2cc(-c3cccc([C@H](O)CO)n3)ccc2N1Cc1ccc(C(F)(F)F)cc1` [Compound 77, (S)-5-(6-(1,2-dihydroxyethyl)pyridin-2-yl)-1-(4-(trifluoromethyl)-benzyl)indolin-2-one], 7.8 ± 0.691 µM. On to `C[C@H](Nc1cc(C(N)=O)nc(-c2ccc3c(c2)CN(CC2CC2)CCN3c2ccc(C(F)(F)F)cc2)n1)C(N)=O` [Compound 89, (S)-6-((1-amino-1-oxopropan-2-yl)amino)-2-(4-(cyclopropylmethyl)-1-(4-(trifluoromethyl)phenyl)-2,3,4,5-tetrahydro-1H-benzo[e][1,4]diazepin-7-yl)pyrimidine-4-carboxamide], for which the IC50 under setting [1] is over 20 µM. The same measure, in the same setting: to `NC(=O)c1cccc(-c2ccc3c(c2)CN(C(=O)C2CC2)CCN3c2ccc(C(F)(F)F)cc2)n1` [Compound 93, 6-(4-(cyclopropanecarbonyl)-1-(4-(trifluoromethyl)phenyl)-2,3,4,5-tetrahydro-1H-benzo[e][1,4]diazepin-7-yl)picolinamide] belongs over 20 µM. Consider `C[C@H](Nc1cc(C(N)=O)nc(-c2ccc3c(c2)OC[C@H](O)[C@H]3c2ccc(C(F)(F)F)cc2)n1)C(N)=O` [Compound 71, 6-(((S)-1-amino-1-oxopropan-2-yl)amino)-2-((3R,4S)-3-hydroxy-4-(4-(trifluoromethyl)phenyl)chroman-7-yl)pyrimidine-4-carboxamide], for which the concentration for half-maximal inhibition (IC50) under setting [1] was over 20 µM. As to `C[C@H](Nc1cc(C(N)=O)nc(-c2ccc3c(c2)CCCCN3c2ccc(C(F)(F)F)cc2)n1)C(N)=O` [Compound 64, (S)-6-((1-amino-1-oxopropan-2-yl)amino)-2-(1-(4-(trifluoro-methyl)phenyl)-2,3,4,5-tetrahydro-1H-benzo[b]azepin-7-yl)pyrimidine-4-carboxamide], the half-maximal inhibitory concentration (IC50) under setting [1] was 1.04 ± 0.077 µM.

With `OC[C@@H](O)c1cccc(-c2ccc3c(c2)CCCCN3C2CCOCC2)n1` [Compound 75, (S)-1-(6-(1-(tetrahydro-2H-pyran-4-yl)-2,3,4,5-tetrahydro-1H-benzo[b]azepin-7-yl)pyridin-2-yl)ethane-1,2-diol], the IC50 under setting [1] turned out to be 3.35 ± 0.244 µM.
